Results as given in patent publication US8501770B2 (ArQule, Inc., priority 2009, dated 2013).
Like-named read-outs stand apart in the source and are kept apart here.

Target: Full-length inactive AKT1 (Homo sapiens, UniProt P31749)
Experiment: Inactive Akt Alpha Screen Assay
Type: biochemical
Description: AKT1 activity was assayed using the GSK3-derived biotinylated peptide substrate, crosstide (biotin-[…]), and AlphaScreen™ (Amplified Luminescent Proximity Homogeneous Assay) technology. AKT1 activation was achieved by the addition of the activating kinases PDK1 and MAPKAPK2, lipid vesicles, and ATP. The extent of peptide phosphorylation was determined using a phospho-AKT substrate antibody and acceptor beads conjugated to Protein A and donor beads conjugated to streptavidin that bind to the biotin on the peptide. Excitation of the donor beads converted ambient oxygen to excited singlet oxygen which, when in close proximity to acceptor beads, reacted with acceptor beads resulting in signal amplification.
Assay plates were incubated for 90 minutes at room temperature in the dark, and the plates were read on a Perkin Elmer Envision Multilabel plate reader (excitation wavelength: […], emission wavelength: 570 nm).

[1] = values not marked with "*", read-out: Akt1 IC50, (AlphaScreen)
[2] = AlphaScreen assay (values not marked with *), read-out: Akt1 IC50, (AlphaScreen) (μM) (or if marked with “*” HTRF assay)
[3] = values not marked with "*": AlphaScreen assay, read-out: Akt1 IC50, (AlphaScreen)

Full-length inactive AKT1, sequence (P31749 whole entry): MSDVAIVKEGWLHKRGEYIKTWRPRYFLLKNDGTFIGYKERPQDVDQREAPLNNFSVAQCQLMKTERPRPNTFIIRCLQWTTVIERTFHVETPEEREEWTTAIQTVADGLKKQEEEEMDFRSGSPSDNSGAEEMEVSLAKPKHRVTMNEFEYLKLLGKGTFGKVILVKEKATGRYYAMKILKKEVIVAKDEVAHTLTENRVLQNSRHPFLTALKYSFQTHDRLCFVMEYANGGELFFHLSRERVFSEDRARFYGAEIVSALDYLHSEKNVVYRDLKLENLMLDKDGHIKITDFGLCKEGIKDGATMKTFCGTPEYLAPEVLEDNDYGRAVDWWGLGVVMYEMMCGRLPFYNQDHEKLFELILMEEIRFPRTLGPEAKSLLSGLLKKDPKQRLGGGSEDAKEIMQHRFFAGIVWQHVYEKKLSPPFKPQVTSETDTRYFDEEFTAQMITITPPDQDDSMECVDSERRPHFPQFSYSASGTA

| SMILES | IC50 [1] [µM] | further results |
| --- | --- | --- |
| Nc1ncccc1-c1nc2ccc(-c3ccccc3O)nc2n1-c1ccc(CNC(=O)c2cccc(F)c2)cc1 [Example 328, N-(4-(2-(2-aminopyridin-3-yl)-5-(2-hydroxyphenyl)-3H-imidazo[4,5-b]pyridin-3-yl)benzyl)-3-fluorobenzamide] | 0.047 |  |
| Nc1ncccc1-c1nc2ccc(-c3ccc(O)nc3)nc2n1-c1ccc(C2(N)CCC2)cc1 [Example 447, 5-{3-[4-(1-aminocyclobutyl)phenyl]-2-(2-aminopyridin-3-yl)-3H-imidazo[4,5-b]pyridin-5-yl}pyridin-2-ol] |  | IC50 [2]: 0.045 µM |
| Cc1cnc2c(c1)nc(-c1cccnc1N)n2-c1ccc(CNC(=O)c2ccc(C(C)C)cc2)cc1 [Example 230, N-(4-(2-(2-aminopyridin-3-yl)-6-methyl-3H-imidazo[4,5-b]pyridin-3-yl)benzyl)-4-isopropylbenzamide] | 0.19 |  |
| Nc1ncccc1-c1nc2ccc(-c3cccc(C(=O)O)c3)nc2n1-c1ccc(C2(N)CCC2)cc1 [Example 376, 3-(3-(4-(1-aminocyclobutyl)phenyl)-2-(2-3aminopyridin-3-yl)-H-imidazo[4,5-b]pyridin-5-yl)benzoic acid] | 0.0038 |  |
| Nc1ncccc1-c1nc2ccc(-c3ccc(O)c(F)c3)nc2n1-c1ccc(C2(N)CCC2)cc1 [Example 434, 4-{3-[4-(1-aminocyclobutyl)phenyl]-2-(2-aminopyridin-3-yl)-3H-imidazo[4,5-b]pyridin-5-yl}-2-fluorophenol] |  | IC50 [2]: 0.005 µM |
| Cc1ccc2cc(NC(=O)Cc3ccc(-n4c(-c5cccnc5N)nc5cc(-c6cccnc6)cnc54)cc3)ccc2n1 [Example 318, 2-(4-(2-(2-aminopyridin-3-yl)-6-(pyridin-3-yl)-3H-imidazo[4,5-b]pyridin-3-yl)phenyl)-N-(2-methylquinolin-6-yl)acetamide] | 0.019 |  |
| Nc1ncccc1-c1nc2cc(Br)cnc2n1-c1ccc(CNS(=O)(=O)c2cccc(F)c2)cc1 [Example 160, N-{4-[2-(2-aminopyridin-3-yl)-6-bromo-3H-imidazo[4,5-b]pyridin-3-yl]benzyl}-3-fluorobenzenesulfonamide] | 0.33 |  |
| Nc1ncccc1-c1nc2ccc(-c3cccc(O)c3)nc2n1-c1ccc(C2(N)CCC2)cc1 [Example 389, 3-(3-(4-(1-aminocyclobutyl)phenyl)-2-(2-aminopyridin-3-yl)-3H-imidazo[4,5-b]pyridin-5-yl)phenol] | 0.0016 |  |
| Cc1cnc2c(c1)nc(-c1cccnc1N)n2-c1ccc(CNC(=O)c2cccc(F)c2F)cc1 [Example 265, N-(4-(2-(2-aminopyridin-3-yl)-6-methyl-3H-imidazo[4,5-b]pyridin-3-yl)benzyl)-2,3-difluorobenzamide] | 0.093 |  |
| Nc1ncccc1-c1nc2cc(Br)cnc2n1-c1ccc(NC(=O)c2ccccc2)cc1 [Example 304, N-(4-(2-(2-aminopyridin-3-yl)-6-bromo-3H-imidazo[4,5-b]pyridin-3-yl)phenyl)benzamide] | 0.02 |  |
| Nc1ncccc1-c1nc2ccc(-c3cccc(N4CCCCCC4)c3)nc2n1-c1ccc(C2(N)CCC2)cc1 [Example 458, 3-{3-[4-(1-aminocyclobutyl)phenyl]-5-(3-azepan-1-ylphenyl)-3H-imidazo[4,5-b]pyridin-2-yl}pyridin-2-amine] |  | IC50 [2]: 0.012 µM |
| Cc1ccnc2c1nc(-c1cccnc1N)n2-c1ccc(CNC(=O)c2ccccc2)cc1 [Example 210, N-(4-(2-(2-aminopyridin-3-yl)-7-methyl-3H-imidazo[4,5-b]pyridin-3-yl)benzyl)benzamide] | 0.21 |  |
| Nc1ncccc1-c1nc2ccc(-c3cccc(N4CCC5(CC4)OCCO5)c3)nc2n1-c1ccc(C2(N)CCC2)cc1 [Example 464, 3-{3-[4-(1-aminocyclobutyl)phenyl]-5-[3-(1,4-dioxa-8-azaspiro[4.5]dec-8-yl)phenyl]-3H-imidazo[4,5-b]pyridin-2-yl}pyridin-2-amine] |  | IC50 [2]: 0.011 µM |
| Nc1ncccc1-c1nc2ccc(-c3cccnc3)nc2n1-c1ccc(CNC(=O)c2ccccc2)cc1 [Example 201, N-(4-(2-(2-aminopyridin-3-yl)-5-(pyridin-3-yl)-3H-imidazo[4,5-b]pyridin-3-yl)benzyl)benzamide] | 0.032 |  |
| Nc1ncccc1-c1nc2ccc(-c3ccc4c(c3)CC(=O)N4)nc2n1-c1ccc(C2(N)CCC2)cc1 [Example 453, 5-{3-[4-(1-aminocyclobutyl)phenyl]-2-(2-aminopyridin-3-yl)-3H-imidazo[4,5-b]pyridin-5-yl}-1,3-dihydro-2H-indol-2-one] |  | IC50 [2]: 0.0028 µM |
| Cc1cnc2c(c1)nc(-c1cccnc1N)n2-c1ccc(CNC(=O)c2ccccc2-n2cccc2)cc1 [Example 214, N-(4-(2-(2-aminopyridin-3-yl)-6-methyl-3H-imidazo[4,5-b]pyridin-3-yl)benzyl)-2-(1H-pyrrol-1-yl)benzamide] | 0.023 |  |
| CC(=O)Nc1ccc(NC(=O)c2ccc(-n3c(-c4cccnc4N)nc4cccnc43)cc2)cc1 [Example 181, N-[4-(acetylamino)phenyl]-4-[2-(2-aminopyridin-3-yl)-3H-imidazo[4,5-b]pyridin-3-yl]benzamide] | 0.84 |  |
| Cc1cnc2c(c1)nc(-c1cccnc1N)n2-c1ccc(CNC(=O)c2cccnc2)cc1 [Example 268, N-(4-(2-(2-aminopyridin-3-yl)-6-methyl-3H-imidazo[4,5-b]pyridin-3-yl)benzyl)nicotinamide] | 0.59 |  |
| CCS(=O)(=O)NCc1ccc(-n2c(-c3cccnc3N)nc3cc(Br)cnc32)cc1 [Example 170, N-{4-[2-(2-aminopyridin-3-yl)-6-bromo-3H-imidazo[4,5-b]pyridin-3-yl]benzyl}ethanesulfonamide] | 0.49 |  |
| COC(=O)c1ccc(-c2ccc3nc(-c4cccnc4N)n(-c4ccc(CNC(=O)c5cccc(F)c5)cc4)c3n2)cc1 [Example 336, methyl 4-(2-(2-aminopyridin-3-yl)-3-(4-((3-fluorobenzamido)methyl)phenyl)-3H-imidazo[4,5-b]pyridin-5-yl)benzoate] | 0.32 |  |
| CNC(=O)c1ccc(-c2ccc3nc(-c4cccnc4N)n(-c4ccc(C5(N)CCC5)cc4)c3n2)cc1 [Example 400, 4-(3-(4-(1-aminocyclobutyl)phenyl)-2-(2-aminopyridin-3-yl)-3H-imidazo[4,5-b]pyridin-5-yl)-N-methylbenzamide] | 0.013 |  |
| Cc1cnc2c(c1)nc(-c1cccnc1N)n2-c1ccc(CNC(=O)c2ccc(N(C)C)cc2)cc1 [Example 222, N-(4-(2-(2-aminopyridin-3-yl)-6-methyl-3H-imidazo[4,5-b]pyridin-3-yl)benzyl)-4-(dimethylamino)benzamide] | 0.043 |  |
| Nc1ncccc1-c1nc2ccc(-c3c[nH]c(=O)[nH]c3=O)nc2n1-c1ccc(CNC(=O)c2cccc(F)c2)cc1 [Example 311, N-(4-(2-(2-aminopyridin-3-yl)-5-(2,4-dioxo-1,2,3,4-tetrahydropyrimidin-5-yl)-3H-imidazo[4,5-b]pyridin-3-yl)benzyl)-3-fluorobenzamide] | 0.029 |  |
| Nc1ncccc1-c1nc2cc(-c3ccsc3)cnc2n1-c1ccc(CNC(=O)c2ccccc2)cc1 [Example 137, N-{4-[2-(2-aminopyridin-3-yl)-6-thiophen-3-yl-3H-imidazo[4,5-b]pyridin-3-yl]benzyl}benzamide] |  | IC50 [3]: 0.05 µM |
| Nc1ncccc1-c1nc2cccnc2n1-c1ccc(CNC(=O)CC2CCCC2)cc1 [Example 73] |  | IC50 [3]: 2.61 µM |
| Cc1ccc2cc(NC(=O)c3ccc(-n4c(-c5cccnc5N)nc5cccnc54)cc3)ccc2n1 [Example 180, 4-[2-(2-aminopyridin-3-yl)-3H-imidazo[4,5-b]pyridin-3-yl]-N-(2-methylquinolin-6-yl)benzamide] | 0.59 |  |
| Cc1cccc(-c2cnc3c(c2)nc(-c2cccnc2N)n3-c2ccc(CNC(=O)c3ccccc3)cc2)c1 [Example 140, N-{4-[2-(2-aminopyridin-3-yl)-6-(3-methylphenyl)-3H-imidazo[4,5-b]pyridin-3-yl]benzyl}benzamide] |  | IC50 [3]: 1.1 µM |

Continued, in another order:

| IC50 [1] [µM] | SMILES | further results |
| --- | --- | --- |
| 0.0042 | Nc1ncccc1-c1nc2ccc(-c3ccc4scnc4c3)nc2n1-c1ccc(C2(N)CCC2)cc1 [Example 416, 3-{3-[4-(1-aminocyclobutyl)phenyl]-5-(1,3-benzothiazol-5-yl)-3H-imidazo[4,5-b]pyridin-2-yl}pyridin-2-amine] |  |
| 0.013 | Nc1ncccc1-c1nc2cccnc2n1-c1ccc(C2(N)CCC2)cc1 [Example 415, 3-{3-[4-(1-aminocyclobutyl)phenyl]-3H-imidazo[4,5-b]pyridin-2-yl}pyridin-2-amine] |  |
| 2.83 | CC(=O)Nc1ccc(-c2cnc3c(c2)nc(-c2cccnc2N)n3-c2cccc(CNC(=O)c3cccc(F)c3)c2)cc1 [Example 402, N-(3-(6-(4-acetamidophenyl)-2-(2-aminopyridin-3-yl)-3H-imidazo[4,5-b]pyridin-3-yl)benzyl)-3-fluorobenzamide] |  |
| 0.0038 | COc1cccc(-c2ccc3nc(-c4cccnc4N)n(-c4ccc(C5(N)CCC5)cc4)c3n2)c1O [Example 430, 2-{3-[4-(1-aminocyclobutyl)phenyl]-2-(2-aminopyridin-3-yl)-3H-imidazo[4,5-b]pyridin-5-yl}-6-methoxyphenol] |  |
| 0.0026 | Nc1ncccc1-c1nc2ccc(-c3cccc(NS(=O)(=O)C4CC4)c3)nc2n1-c1ccc(C2(N)CCC2)cc1 [Example 406, N-(3-{3-[4-(1-aminocyclobutyl)phenyl]-2-(2-aminopyridin-3-yl)-3H-imidazo[4,5-b]pyridin-5-yl}phenyl)cyclopropanesulfonamide] |  |
| 0.0027 | COc1cc(-c2ccc3nc(-c4cccnc4N)n(-c4ccc(C5(N)CCC5)cc4)c3n2)ccc1O [Example 419, 4-{3-[4-(1-aminocyclobutyl)phenyl]-2-(2-aminopyridin-3-yl)-3H-imidazo[4,5-b]pyridin-5-yl}-2-methoxyphenol] |  |
